Measurements published in patent US20120129949A1, “Use of Anthracene Derivatives as Anti-Infectives” (SEALIFE PHARMA GMBH, priority 2009, published 2012).
In brackets after ≈: the same amount, converted by molar mass. Read-outs that look alike come from different tables or passages of the source.

What was measured:
[1] = system: Aspergillus fumigatus or faecalis; assay: MIC test (antifungal), Aspergillus; type: cell-based; settings: multi-resistant strain; averages of multiple test runs; log2 dilutions from 250 μg/ml
Experimental: (§1) The activities of the compounds were tested in two different screening systems. The antibacterial and antifungal activities were examined by means of an MIC test, MIC standing for “minimal inhibitory concentration” and referring to the lowest concentration of a substance at which no proliferation of microorganisms can be observed with the naked eye. The MIC is determined by means of a so called titration method in which the substance is diluted and, subsequently, the pathogen is added to it.
(§2) Usually, this method is applied in order to determine the concentration of an antibiotic which only just inhibits the growth of a bacterial strain. The MIC is indicated in micrograms per milliliter (μg/ml), and the dilutions are conventionally carried out in log2 steps. Herein, a starting concentration of 250 μg/ml was diluted several times, to the double volume in each case, resulting in test concentrations of 250 μg/ml, 125 μg/ml, 62.5 μg/ml, 31.2 μg/ml, 15.6 μg/ml, 7.8 μg/ml, etc. Thus, lower values indicate a better activity as an anti-infective.
(§3) The tests were carried out according to the standards of EUCAST (European Committee for Antimicrobial Susceptibility Testing) and according to the AFST-protocol (“Antifungal Susceptibility Testing” protocol) of the European Society of Clinical Microbiology and Infectious Diseases (ESCMID).
(§4) In the following Table 3, the test results indicating the anti-infective action of altersolanol M, alterporriol I and J as well as of some known and structurally similar comparative substances against some multi-resistant bacteria and fungi (all of which were kindly placed at our disposal by Prof Georgopulos from the Medical University of Vienna). The data constituting averages of the values obtained in multiple test runs.

[2] = system: Staphylococcus epidermis; assay: MIC test, multi-resistant Staphylococcus epidermis; type: cell-based; settings: for MIC: Staphylococcus, read-out: MHK values SE (Staphylococcus epidermis)
Experimental: as §1, §2, §3, §4

[3] = system: methicillin-resistant Staphylococcus aureus; assay: MIC test, MRSA; type: cell-based; settings: for MIC: Staphylococcus aureus, MRSA, read-out: MHK values MRSA (methicillin-resistant Staphylococcus aureus)
Experimental: as §1, §2, §3, §4

[4] = system: Streptococcus pneumoniae; assay: MIC test, multi-resistant Streptococcus pneumoniae; type: cell-based; settings: for MHK values STR (Streptococcus pneumoniae): multi-resistant strain, averages of multiple test runs, log2 dilutions from 250 μg/ml
Experimental: as §1, §2, §3, §4

[5] = system: Enterococcus faecalis or faecium; assay: MIC test, multi-resistant Enterococcus; type: cell-based; settings: multi-resistant strain; averages of multiple test runs; log2 dilutions from 250 μg/ml
Experimental: as §1, §2, §3, §4

[6] = system: Staphylococcus aureus or methicillin-resistant Staphylococcus aureus; settings: Xu et al. 2008; Sommart et al. 2008; cited from earlier work
[7] = Yagi et al., Phytochemistry 34(4), 1005-1009 (1993); cited from earlier work
[8] = system: Acinetobacter baumanii; assay: MIC test, multi-resistant Acinetobacter baumanii; type: cell-based; settings: multi-resistant strain; averages of multiple test runs; log2 dilutions from 250 μg/ml
Experimental: as §1, §2, §3, §4

[9] = system: E. coli; assay: MIC test, multi-resistant E. coli; type: cell-based; settings: multi-resistant strain; averages of multiple test runs; log2 dilutions from 250 μg/ml
Experimental: as §1, §2, §3, §4

[10] = system: bacteria and fungi; settings: Aly et al., Phytochemistry 69, 1716-1725; cited from earlier work
[11] = system: Pseudomonas aeruginosa; assay: MIC test, multi-resistant Pseudomonas aeruginosa; type: cell-based; settings: multi-resistant strain; averages of multiple test runs; log2 dilutions from 250 μg/ml
Experimental: as §1, §2
(§5) The tests were carried out according to the standards of EUCAST (European Committee for Antimicrobial Susceptibility Testing) and according to the AFST-protocol (“Antifungal Susceptibility Testing” protocol) of the European Society of Clinical Microbiology and Infectious Diseases (ESCMID). […]

[12] = system: Klebsiella sp.; assay: MIC test, multi-resistant Klebsiella sp.; type: cell-based; settings: multi-resistant strain; averages of multiple test runs; log2 dilutions from 250 μg/ml
Experimental: as §1, §2, §5

[13] = multi-resistant strain, averages of multiple test runs, log2 dilutions from 250 μg/ml
[14] = verbal summary of the MIC test series

Compound | MHK values ASP (Aspergillus fumigatus or faecalis) [1] [µg/mL] | MIC [2, 13] [µg/mL] | MHK values STR (Streptococcus pneumoniae) [4] [µg/mL] | MHK values EK (Enterococcus faecalis or faecium) [5] [µg/mL] | MHK values AB (Acinetobacter baumanii) [8] [µg/mL] | also measured
COc1cc(O)c2c(c1O)[C@H](O)[C@H]1C[C@](C)(O)[C@H](O)C[C@@H]1C2=O [Example 5, (2R,3S,4aS,9aS,10R)-2,3,5,8,10-penta-hydroxy-6-methoxy-3-methyl-1,2,3,4,4a,9a-hexahydro-9H,10H-anthracen-9-one] | 31.2 | 15.6 (≈ 48.1 µM) | 7.8 | 125 | – | MIC [3, 13]: 15.6 µg/mL (≈ 48.1 µM); activity against methicillin-resistant Staphylococcus aureus, in words [3, 14]: very good activity; activity against Streptococcus pneumoniae, in words [4, 14]: excellent effectiveness; effectiveness against Staphylococcus aureus or methicillin-resistant Staphylococcus aureus [6]: slight effectiveness
altersolanol F | – | – | – | – | – | anti-microbial activity [7]: completely ineffective
COC1=CC(=O)c2c(O)c3c(c(O)c2C1=O)C[C@](C)(O)[C@H](O)[C@H]3O [Bostrycin] | – | 125 (≈ 372 µM) | 62.5 | – | 125 | MIC [3, 13]: 125 µg/mL (≈ 372 µM)
Macrosporin sulfate | – | – | 31.2 | – | 125 | –
COc1cc(O)c(C(=O)O)c(-c2cc(O)c(O)cc2C)c1 [Altenusin] | – | – | 31.2 | 62.5 | 62.5 | MIC [2]: 31.2 µg/mL (≈ 107 µM); MHK values EC (E. coli) [9]: 62.5 µg/mL; MIC [3]: 31.2 µg/mL (≈ 107 µM)
Alterporriol A + B | 62.5 | – | 7.8 | 15.6 | 125 | MHK values SE (Staphylococcus epidermis) [2, 13]: 15.6 µg/mL; MHK values MRSA (methicillin-resistant Staphylococcus aureus) [3, 13]: 15.6 µg/mL
COc1cc(O)c2c(c1)C(=O)C1=C(C[C@@H](O)[C@@](C)(O)C1)C2=O [altersolanol B] | – | – | – | – | – | anti-microbial activity [7]: anti-microbial activity
COc1cc(O)c2c(c1)C(=O)C1=C(C2=O)[C@H](O)[C@@H](O)[C@@](C)(O)[C@@H]1O [Altersolanol A, 7-methoxy-2-methyl-(1R,2S,3R,4S)-1,2,3,4-tetrahydro-1,2,3,4,5-pentahydroxy-anthracene-9,10-dione] | 7.8 | 7.8 (≈ 23.2 µM) | 7.8 | 15.6 | 62.5 | MHK values EC (E. coli) [9]: 62.5 µg/mL; MIC [3]: 7.8 µg/mL (≈ 23.2 µM); anti-microbial activity [7]: anti-microbial activity; activity against bacteria and fungi [10]: most efficient of the tested substances
COc1cc(O)c2c(c1)C(=O)C1=C(C[C@@H](O)[C@@](C)(O)[C@@H]1O)C2=O [altersolanol C] | – | – | – | – | – | anti-microbial activity [7]: anti-microbial activity
COc1cc(O)c2c(c1)[C@H](O)[C@@H]1[C@H](C[C@@H](O)[C@@](C)(O)[C@@H]1O)C2=O [Example 3, (2R,3R,4R,4aS,9aS,10R)-2,3,4,8,10-pentahydroxy-6-methoxy-3-methyl-1,2,3,4,4a,9a-hexahydro-9H,10H-anthracen-9-one] | 31.2 | 7.8 (≈ 24 µM) | 7.8 | 7.8 | 7.8 | MIC [3, 13]: 7.8 µg/mL (≈ 24 µM)
COc1cc(O)c2c(c1)C(=O)[C@@H]1[C@H](C[C@@H](O)[C@@](C)(O)[C@@H]1O)[C@H]2O [Example 2, (1R,2R,3R,4aS,9aR,10R)-1,2,3,5,10-pentahydroxy-7-methoxy-2-methyl-1,2,3,4,4a,9a-hexahydro-9H,10H-anthracen-9-one] | 62.5 | 31.2 (≈ 96.2 µM) | 31.2 | 31.2 | – | MIC [3, 13]: 31.2 µg/mL (≈ 96.2 µM)
COc1cc(O)c2c(c1)C(=O)c1cc(C)c(O)cc1C2=O [Macrosporin] | – | 62.5 (≈ 220 µM) | – | – | 125 | MHK values EC (E. coli) [9]: 62.5 µg/mL; MIC [3, 13]: 62.5 µg/mL (≈ 220 µM)
COc1cc2c(c(O)c1-c1c(OC)cc(O)c3c1C(=O)C1=C(C3=O)[C@H](O)[C@@H](O)[C@@](C)(O)[C@H]1O)C(=O)c1cc(O)c(C)cc1C2=O [Example 4, 8-(1,7-dihydroxy-6-methyl-3-methoxy-9,10-dioxo-9H,10H-anthracen-2-yl)-(1S,2S,3R,4S)-1,2,3,4,5-pentahydroxy-7-methoxy-2-methyl-1,2,3,4-tetrahydro-9H,10H-anthracen-9,10-dione] | 125 | 7.8 (≈ 12.6 µM) | 7.8 | 7.8 | – | MIC [3]: 7.8 µg/mL (≈ 12.6 µM)
alterporriols D and E | – | – | – | – | – | activity against bacteria and fungi [10]: do not show any activity
Indole carbaldehyde (carboxaldehyde) | – | – | 62.5 | – | 125 | MHK values PS (Pseudomonas aeruginosa) [11]: 125 µg/mL
COc1cc(O)c2c(c1)[C@H](O)[C@@H]1[C@@H](C2=O)[C@H](O)[C@@H](O)[C@@](C)(O)[C@@H]1O [Ampelanol] | – | – | – | – | – | activity against bacteria and fungi [10]: do not show any activity
altersolanol D | – | – | – | – | – | anti-microbial activity [7]: completely ineffective
COc1cc(O)c2c(c1)C(=O)[C@H]1C[C@](C)(O)[C@H](O)C[C@@H]1[C@H]2O [Altersolanol J] | 125 | – | 15.6 | 31.2 | 125 | MHK values KL (Klebsiella sp.) [12]: 125 µg/mL; MHK values SE (Staphylococcus epidermis) [2, 13]: 62.5 µg/mL; MHK values MRSA (methicillin-resistant Staphylococcus aureus) [3, 13]: 62.5 µg/mL; activity against bacteria and fungi [10]: do not show any activity
